Laboratory results: a compilation of properties of binary mixtures (doi:10.1021/je950317s)

Test: excess molar enthalpy (molar enthalpy of mixing); xn = mol fraction of the nth substance listed
Settings: 100 kPa

Cl/C=C/Cl + CCCCCCCCCCCCCC
293.15 K
Settings	excess molar enthalpy [kcal/mol]
x1 = 0.1129	0.05
x1 = 0.1792	0.0877
x1 = 0.3112	0.14
x1 = 0.3404	0.153
x1 = 0.3809	0.165
x1 = 0.4345	0.181
x1 = 0.4786	0.193
x1 = 0.5019	0.2
x1 = 0.535	0.201
x1 = 0.5634	0.205
x1 = 0.5851	0.204
x1 = 0.6008	0.207
x1 = 0.6211	0.209
x1 = 0.6352	0.208
x1 = 0.6675	0.204
x1 = 0.6789	0.202
x1 = 0.7008	0.199
x1 = 0.7106	0.198
x1 = 0.7314	0.191
x1 = 0.747	0.188
x1 = 0.757	0.185
x1 = 0.7762	0.178
x1 = 0.8541	0.141
x1 = 0.8757	0.127
x1 = 0.9005	0.108
x1 = 0.9374	0.0746

Cl/C=C/Cl + CCCCCCCCCCCC
293.15 K
Settings	excess molar enthalpy [kcal/mol]
x1 = 0.086	0.0404
x1 = 0.1183	0.05
x1 = 0.1952	0.0913
x1 = 0.2658	0.115
x1 = 0.354	0.151
x1 = 0.4354	0.175
x1 = 0.5034	0.19
x1 = 0.5297	0.19
x1 = 0.5654	0.193
x1 = 0.5792	0.19
x1 = 0.637	0.19
x1 = 0.6708	0.187
x1 = 0.6712	0.19
x1 = 0.6857	0.185
x1 = 0.7145	0.182
x1 = 0.7213	0.179
x1 = 0.7547	0.173
x1 = 0.7676	0.166
x1 = 0.8276	0.14
x1 = 0.8799	0.107
x1 = 0.9289	0.0707
x1 = 0.9652	0.038

Cl/C=C\Cl + CCCCCCCCCCCCCCCC
293.15 K
Settings	excess molar enthalpy [kcal/mol]
x1 = 0.5093	0.332
x1 = 0.6348	0.36
x1 = 0.714	0.353
x1 = 0.7791	0.326
x1 = 0.8308	0.282
x1 = 0.8823	0.228
x1 = 0.9221	0.168
x1 = 0.9676	0.0798

Cl/C=C/Cl + CCCCCCC
293.15 K
Settings	excess molar enthalpy [kcal/mol]
x1 = 0.1911	0.081
x1 = 0.2074	0.0851
x1 = 0.2453	0.102
x1 = 0.2905	0.111
x1 = 0.3272	0.128
x1 = 0.352	0.129
x1 = 0.3757	0.137
x1 = 0.4118	0.151
x1 = 0.4157	0.15
x1 = 0.452	0.158
x1 = 0.4756	0.158
x1 = 0.4978	0.161
x1 = 0.5334	0.162
x1 = 0.5472	0.163
x1 = 0.5627	0.165
x1 = 0.5821	0.162
x1 = 0.6074	0.164
x1 = 0.6429	0.157
x1 = 0.6534	0.156
x1 = 0.7038	0.145
x1 = 0.7761	0.125
x1 = 0.8005	0.117
x1 = 0.907	0.0655
x1 = 0.9624	0.0301

Cl/C=C\Cl + CC(C)CC(C)(C)C
293.15 K
Settings	excess molar enthalpy [kcal/mol]
x1 = 0.2119	0.142
x1 = 0.3627	0.209
x1 = 0.4911	0.228
x1 = 0.5812	0.226
x1 = 0.6622	0.21
x1 = 0.7314	0.188
x1 = 0.8061	0.155
x1 = 0.8696	0.116
x1 = 0.9434	0.0566

Cl/C=C\Cl + CCCCCCCCCC
293.15 K
Settings	excess molar enthalpy [kcal/mol]
x1 = 0.2397	0.171
x1 = 0.4025	0.253
x1 = 0.6996	0.239
x1 = 0.7635	0.211
x1 = 0.9492	0.0662

Cl/C=C/Cl + CCCCCCCCCC
293.15 K
Settings	excess molar enthalpy [kcal/mol]
x1 = 0.0575	0.022
x1 = 0.1583	0.0636
x1 = 0.2175	0.0865
x1 = 0.2316	0.0944
x1 = 0.2585	0.106
x1 = 0.3396	0.132
x1 = 0.3972	0.152
x1 = 0.4202	0.16
x1 = 0.4829	0.168
x1 = 0.5312	0.179
x1 = 0.5522	0.178
x1 = 0.5739	0.175
x1 = 0.6031	0.175
x1 = 0.6375	0.178
x1 = 0.6555	0.176
x1 = 0.6923	0.165
x1 = 0.6977	0.166
x1 = 0.7284	0.163
x1 = 0.7393	0.161
x1 = 0.7653	0.148
x1 = 0.7812	0.144
x1 = 0.8229	0.127
x1 = 0.8478	0.116
x1 = 0.9335	0.0602
x1 = 0.9785	0.0213

Cl/C=C\Cl + CCCCCCCCCCCC
293.15 K
Settings	excess molar enthalpy [kcal/mol]
x1 = 0.2693	0.192
x1 = 0.4431	0.283
x1 = 0.6609	0.281
x1 = 0.7922	0.232
x1 = 0.851	0.191
x1 = 0.9026	0.139
x1 = 0.9588	0.0679

Cl/C=C\Cl + CCCCCCCCCCCCCC
293.15 K
Settings	excess molar enthalpy [kcal/mol]
x1 = 0.3157	0.229
x1 = 0.5126	0.327
x1 = 0.638	0.336
x1 = 0.7787	0.288
x1 = 0.8831	0.194
x1 = 0.923	0.139
x1 = 0.969	0.0657

Cl/C=C/Cl + CC(C)CC(C)(C)C
293.15 K
Settings	excess molar enthalpy [kcal/mol]
x1 = 0.1328	0.0519
x1 = 0.1885	0.0681
x1 = 0.2561	0.0923
x1 = 0.3253	0.111
x1 = 0.415	0.124
x1 = 0.4532	0.13
x1 = 0.4584	0.134
x1 = 0.5167	0.141
x1 = 0.5332	0.138
x1 = 0.5571	0.138
x1 = 0.5777	0.139
x1 = 0.6055	0.139
x1 = 0.6468	0.135
x1 = 0.6554	0.133
x1 = 0.6658	0.131
x1 = 0.6824	0.13
x1 = 0.6926	0.127
x1 = 0.8092	0.0997
x1 = 0.8404	0.0875
x1 = 0.8988	0.0619
x1 = 0.9517	0.033

Cl/C=C\Cl + CCCCCCC
313.15 K
Settings	excess molar enthalpy [kcal/mol]
x1 = 0.0572	0.0485
x1 = 0.2014	0.148
x1 = 0.3465	0.218
x1 = 0.4595	0.245
x1 = 0.5694	0.24
x1 = 0.6673	0.221
x1 = 0.7579	0.183
x1 = 0.8409	0.137
x1 = 0.9317	0.0652

Cl/C=C/Cl + CCCCCCCCCCCCCCCC
293.15 K
Settings	excess molar enthalpy [kcal/mol]
x1 = 0.0735	0.0351
x1 = 0.1873	0.0944
x1 = 0.3532	0.167
x1 = 0.4326	0.192
x1 = 0.5287	0.212
x1 = 0.5819	0.223
x1 = 0.6155	0.223
x1 = 0.6514	0.22
x1 = 0.7106	0.214
x1 = 0.7294	0.208
x1 = 0.7428	0.205
x1 = 0.7698	0.197
x1 = 0.7846	0.194
x1 = 0.8008	0.184
x1 = 0.8578	0.152
x1 = 0.8776	0.137
x1 = 0.8951	0.125
x1 = 0.9485	0.071
x1 = 0.9795	0.0306
